± gives the expanded uncertainty stated by the source.

For orientation: refractive index means the speed of light in vacuum divided by its phase velocity in the sample. A word on the mass density: it is the mass of a sample divided by its volume.

The nature of series [1]: refractive index (Na D-line) (dimensionless). As to conditions: 298.15 K; 101.33 kPa; Liquid; Standard Abbe refractometry.
For series [2] the following is noted: 298.15 K; 101.33 kPa; Liquid; Pycnometric method.

On to `CN1CCN(C)C1=O` [1,3-dimethyl-2-imidazolidinone], for which the refractive index in series [1] is 1.4712 ± 0.0008. Further, the mass density in series [2] stood at 1052.25 ± 1.1 kg/m3.
